Test results from PubChem BioAssay (NCI).
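Growth conditions: 96-well plates. Treatment: test compound, 48 hours, 5 concentrations. Analysis: linear interpolation between bracketing concentrations; unreached endpoints set to highest concentration. TGI: total growth inhibition.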

What was measured:
Assay in all cases: NCI tumour cell line growth inhibition, 48 h
NCI-H460 lung = tested on: NCI-H460 lung
NCI-H23 lung = tested on: NCI-H23 lung
HOP-18 NSCLC = tested on: HOP-18 NSCLC
NCI-H522 lung = tested on: NCI-H522 lung
RXF 393 renal = tested on: RXF 393 renal
U251 CNS = tested on: U251 CNS
UO-31 renal = tested on: UO-31 renal
RXF-631 renal = tested on: RXF-631 renal
EKVX NSCLC = tested on: EKVX NSCLC
SK-MEL-5 melanoma = tested on: SK-MEL-5 melanoma
MOLT-4 leukemia = tested on: MOLT-4 leukemia
LOX IMVI melanoma = tested on: LOX IMVI melanoma
DMS 114 small cell lung = tested on: DMS 114 small cell lung
SK-OV-3 ovarian = tested on: SK-OV-3 ovarian
SNB-19 CNS = tested on: SNB-19 CNS
CCRF-CEM leukemia = tested on: CCRF-CEM leukemia
RPMI-8226 leukemia = tested on: RPMI-8226 leukemia
OVCAR-4 ovarian = tested on: OVCAR-4 ovarian
DMS 273 small cell lung = tested on: DMS 273 small cell lung
HL-60(TB) leukemia = tested on: HL-60(TB) leukemia
A498 renal = tested on: A498 renal
LXFL 529 NSCLC = tested on: LXFL 529 NSCLC
DLD-1 colon = tested on: DLD-1 colon
UACC-257 melanoma = tested on: UACC-257 melanoma
P388/ADR leukemia = tested on: P388/ADR leukemia
HOP-62 NSCLC = tested on: HOP-62 NSCLC
SF-295 CNS = tested on: SF-295 CNS
MALME-3M melanoma = tested on: MALME-3M melanoma
NCI-H226 lung = tested on: NCI-H226 lung
OVCAR-3 ovarian = tested on: OVCAR-3 ovarian
SN12C renal = tested on: SN12C renal
M14 melanoma = tested on: M14 melanoma
786-0 renal = tested on: 786-0 renal
P388 leukemia = tested on: P388 leukemia
UACC-62 melanoma = tested on: UACC-62 melanoma
HT29 colon = tested on: HT29 colon
CAKI-1 renal = tested on: CAKI-1 renal
SF-268 CNS = tested on: SF-268 CNS
HCT-15 colon = tested on: HCT-15 colon
M19-MEL melanoma = tested on: M19-MEL melanoma
SNB-75 CNS = tested on: SNB-75 CNS
SF-539 CNS = tested on: SF-539 CNS
OVCAR-5 ovarian = tested on: OVCAR-5 ovarian
SK-MEL-2 melanoma = tested on: SK-MEL-2 melanoma
SK-MEL-28 melanoma = tested on: SK-MEL-28 melanoma
KM20L2 colon = tested on: KM20L2 colon
MCF7 breast = tested on: MCF7 breast
SNB-78 CNS = tested on: SNB-78 CNS
K-562 leukemia = tested on: K-562 leukemia
NCI/ADR-RES ovarian = tested on: NCI/ADR-RES ovarian
XF 498 CNS = tested on: XF 498 CNS
A549 NSCLC = tested on: A549 NSCLC
COLO 205 colon = tested on: COLO 205 colon
OVCAR-8 ovarian = tested on: OVCAR-8 ovarian
SW-620 colon = tested on: SW-620 colon
KM12 colon = tested on: KM12 colon
SN12K1 renal = tested on: SN12K1 renal
SR leukemia = tested on: SR leukemia
IGROV1 ovarian = tested on: IGROV1 ovarian
HCC-2998 colon = tested on: HCC-2998 colon
HCT-116 colon = tested on: HCT-116 colon
HOP-92 NSCLC = tested on: HOP-92 NSCLC

Measured: TGI

CCCS(=O)c1nc(COC(=O)NC)c(COC(=O)NC)n1C (configuration not stated)
> 100 µM: NCI-H460 lung | NCI-H23 lung | HOP-18 NSCLC | NCI-H522 lung | RXF 393 renal | U251 CNS | UO-31 renal | RXF-631 renal | EKVX NSCLC | SK-MEL-5 melanoma | MOLT-4 leukemia | LOX IMVI melanoma | DMS 114 small cell lung | SK-OV-3 ovarian | SNB-19 CNS | CCRF-CEM leukemia | RPMI-8226 leukemia | OVCAR-4 ovarian | DMS 273 small cell lung | HL-60(TB) leukemia | A498 renal | LXFL 529 NSCLC | DLD-1 colon | UACC-257 melanoma | P388/ADR leukemia | HOP-62 NSCLC | SF-295 CNS | MALME-3M melanoma | NCI-H226 lung | OVCAR-3 ovarian | SN12C renal | M14 melanoma | 786-0 renal | P388 leukemia | UACC-62 melanoma | HT29 colon | CAKI-1 renal | SF-268 CNS | HCT-15 colon | M19-MEL melanoma | SNB-75 CNS | SF-539 CNS | OVCAR-5 ovarian | SK-MEL-2 melanoma | SK-MEL-28 melanoma | KM20L2 colon | MCF7 breast | SNB-78 CNS | K-562 leukemia | NCI/ADR-RES ovarian | XF 498 CNS | A549 NSCLC | COLO 205 colon | OVCAR-8 ovarian | SW-620 colon | KM12 colon | SN12K1 renal | SR leukemia | IGROV1 ovarian | HCC-2998 colon | HCT-116 colon | HOP-92 NSCLC
